# Source: patent US11136311B2, “Heteroaromatic derivatives as NIK inhibitors” (Janssen Pharmaceutica NV, priority 2016, dated 2021)
# Assays:
# [1] = molecular target: recombinant human NF-kappaB-inducing kinase (NIK/MAP3K14) (Homo sapiens (Human), UniProt Q99558); experiment: Inhibition of auto-phosphorylation of recombinant human NIK/MAP3K14 activity (AlphaScreen); type: biochemical; conditions: averaged values over all measurements on all batches
# Experimental: Inhibition of auto-phosphorylation of recombinant human NF-kappaB-inducing kinase (NIK/MAP3K14) activity (AlphaScreen®)
# NIK/MAP3K14 auto-phosphorylation activity was measured using the AlphaScreen® (αscreen) format (Perkin Elmer). All compounds tested were dissolved in dimethyl sulfoxide (DMSO) and further dilutions were made in assay buffer. Final DMSO concentration was 1% (v/v) in assays. Assay buffer was 50 mM Tris pH 7.5 containing 1 mM EGTA (ethylene glycol tetraacetic acid), 1 mM DTT (dithiothreitol), 0.1 mM Na3VO4, 5 mM MgCl2, 0.01% Tween® 20. Assays were carried out in 384 well Alphaplates (Perkin Elmer). Incubations consisted of compound, 25 microM Adenosine-5′-triphosphate (ATP), and 0.2 nM NIK/MAP3K14. Incubations were initiated by addition of GST-tagged NIK/MAP3K14 enzyme, carried out for 1 h at 25° C. and terminated by addition of stop buffer containing anti-phospho-IKK Ser176/180 antibody. Protein A Acceptor and Glutathione-Donor beads were added before reading using an EnVision® Multilabel Plate Reader (Perkin Elmer). Signal obtained in the wells containing blank samples was subtracted from all other wells and IC50's were determined by fitting a sigmoidal curve to % inhibition of control versus Log10 compound concentration.
# [2] = tested on: JJN-3 cells; experiment: Antiproliferative activity on JJN-3 (NIK translocated) multiple myeloma cells (CellTiter-Glo); type: cell-based, human; conditions: Homo sapiens, JJN-3, 96 h, JJN-3 (NIK translocated) cells, 96 hr; averaged values; read-out: JJN-3 Proliferation inhibition (IC50 (nM))
# Experimental: (§1) Determination of antiproliferative activity on JJN-3 (NIK translocated) and KMS12-BM (NIK WT) multiple myeloma cells
# (§2) All compounds tested were dissolved in DMSO and further dilutions were made in culture medium. Final DMSO concentration was 0.3% (v/v) in cell proliferation assays. Viability was assessed using CellTiter-Glo cell viability assay kit (Promega). The human JJN-3 and KMS12-BM cells (DSMZ) were cultured in RPMI 1640 medium supplemented with 2 mM L-glutamine, and 10% fetal calf serum (PAA). Cells were routinely kept as suspension cells at 37° C. in a humidified 5% CO2 atmosphere. Cells were passaged at a seeding density of 0.2×10^6/ml twice a week. Cells were seeded in black tissue culture treated 96-well plates (Perkin Elmer). Densities used for plating ranged from 15000 (JJN3) to 20000 (KMS12BM) cells per well in a total volume of 135 μl medium. Drugs and/or solvents were added (15 μl) to a final volume of 150 μl. Following 96 hr of treatment, plates were removed from the incubator and allowed to equilibrate to room temperature for approx 10 min. 75 μl CellTiter-Glo reagent was added to each well that was then covered (Perkin Elmer Topseal) and shaken on plate shaker for 10 min. Luminescence was measured on a HTS Topcount (Perkin Elmer). Within an experiment, the results for each treatment were the mean of 2 replicate wells. For initial screening purposes, compounds were tested using a 9 point dilution curve (serial 1:3 dilutions). For each experiment, controls (containing no drug) and a blank incubation (containing cells read at the time of compound addition) were run in parallel. The blank value was subtracted from all control and sample values. For each sample, the mean value for cell growth (in relative light units) was expressed as a percentage of the mean value for cell growth of the control.
# [3] = tested on: KMS12-BM cells; experiment: Antiproliferative activity on KMS12-BM (NIK WT) multiple myeloma cells (CellTiter-Glo); type: cell-based, human; conditions: Homo sapiens, KMS-12-BM, 96 h, KMS12-BM (NIK WT) cells, 96 hr; averaged values; read-out: KMS-12 Proliferation inhibition (IC50 (nM))
# Experimental: as §1, §2
# Sequence of recombinant human NF-kappaB-inducing kinase (NIK/MAP3K14) (Q99558 whole entry): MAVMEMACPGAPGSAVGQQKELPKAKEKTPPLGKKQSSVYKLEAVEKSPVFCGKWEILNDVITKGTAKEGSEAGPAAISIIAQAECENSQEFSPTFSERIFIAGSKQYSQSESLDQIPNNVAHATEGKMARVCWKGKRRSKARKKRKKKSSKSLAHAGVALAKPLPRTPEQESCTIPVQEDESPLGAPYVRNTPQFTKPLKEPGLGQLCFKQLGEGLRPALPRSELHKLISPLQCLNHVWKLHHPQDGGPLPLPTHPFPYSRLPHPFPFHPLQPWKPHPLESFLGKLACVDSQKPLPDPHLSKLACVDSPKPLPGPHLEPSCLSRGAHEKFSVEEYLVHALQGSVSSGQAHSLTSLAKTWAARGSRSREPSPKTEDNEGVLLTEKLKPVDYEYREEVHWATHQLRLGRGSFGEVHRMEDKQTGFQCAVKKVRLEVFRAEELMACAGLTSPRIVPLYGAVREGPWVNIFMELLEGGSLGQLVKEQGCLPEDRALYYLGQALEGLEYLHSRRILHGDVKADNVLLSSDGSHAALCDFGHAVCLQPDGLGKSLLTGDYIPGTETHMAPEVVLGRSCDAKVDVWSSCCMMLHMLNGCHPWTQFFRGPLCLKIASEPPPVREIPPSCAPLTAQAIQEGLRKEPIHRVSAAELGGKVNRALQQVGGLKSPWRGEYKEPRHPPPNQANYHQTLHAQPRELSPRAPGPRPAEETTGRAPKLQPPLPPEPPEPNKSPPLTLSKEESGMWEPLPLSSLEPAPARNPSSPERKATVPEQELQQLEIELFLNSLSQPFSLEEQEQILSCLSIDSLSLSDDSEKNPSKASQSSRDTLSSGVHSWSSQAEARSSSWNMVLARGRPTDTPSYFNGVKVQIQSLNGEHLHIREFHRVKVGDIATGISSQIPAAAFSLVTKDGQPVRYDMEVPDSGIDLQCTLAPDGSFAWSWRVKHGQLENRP
structure (smiles),measurement,setting,value
CCOCCn1nc(C)cc1Nc1nccc(-c2cc(C#N)c3c(c2)[C@@](C)(CO)CN3)n1 [Compound 44],IC50,[1],4.5 nM
same,IC50,[2],324 nM
same,IC50,[3],8710 nM
CN(C)C(=O)c1cc(Nc2nccc(-c3cc(C#N)c4c(c3)[C@@](C)(CO)CN4)n2)nn1C [Compound 45],IC50,[1],7.6 nM
same,IC50,[2],1320 nM
same,IC50,[3],4170 nM
COCCCn1nccc1Nc1nccc(-c2cc(C#N)c3c(c2)[C@@](C)(CO)CN3)n1 [Compound 46],IC50,[1],6.6 nM
same,IC50,[2],158 nM
same,IC50,[3],2400 nM
COCCCn1nccc1Nc1nccc(-c2cc(C#N)c3c(c2)[C@](C)(CO)CN3)n1 [Compound 47],IC50,[1],44 nM
same,IC50,[2],1550 nM
same,IC50,[3],> 10000 nM
CC(C)n1ccc(Nc2nccc(-c3cc(C#N)c4c(c3)[C@@](C)(CO)CN4)n2)n1 [Compound 48],IC50,[1],5.1 nM
same,IC50,[2],89 nM
same,IC50,[3],263 nM
Cn1nc(Nc2nccc(-c3cc(C#N)c4c(c3)C(C)(CO)CN4)n2)cc1C(=O)NC1CCOCC1 (stereo not drawn) [Compound 50],IC50,[1],3.8 nM
same,IC50,[2],316 nM
same,IC50,[3],> 10000 nM
CNC(=O)c1nn(C)cc1Nc1nccc(-c2cc(C#N)c3c(c2)[C@@](C)(CO)CN3)n1 [Compound 53],IC50,[1],3.5 nM
same,IC50,[2],851 nM
same,IC50,[3],~5010 nM
COCCCn1nc(C)cc1Nc1nccc(-c2cc(C#N)c3c(c2)[C@](C)(CO)CN3)n1 [Compound 54],IC50,[1],11 nM
same,IC50,[2],525 nM
same,IC50,[3],> 10000 nM
Cc1cc(Nc2nccc(-c3cc(C#N)c4c(c3)[C@@](C)(CO)CN4)n2)n(CC(C)C)n1 [Compound 55],IC50,[1],4.4 nM
same,IC50,[2],59 nM
same,IC50,[3],~2040 nM
CNC(=O)c1cc(Nc2nccc(-c3cc(C#N)c4c(c3)[C@@](C)(CO)CN4)n2)n(C)n1 [Compound 56],IC50,[1],3.1 nM
same,IC50,[2],~363 nM
same,IC50,[3],~1410 nM
COCCn1nc(C)cc1Nc1nccc(-c2cc(C#N)c3c(c2)[C@](C)(CO)CN3)n1 [Compound 57],IC50,[1],28 nM
same,IC50,[2],~933 nM
same,IC50,[3],> 10000 nM
COC(C)(C)CCn1nc(Nc2nccc(-c3cc(C#N)c4c(c3)[C@@](C)(CO)CN4)n2)cc1C [Compound 58],IC50,[1],1.5 nM
same,IC50,[2],69 nM
same,IC50,[3],468 nM
COC(C)(C)CCn1nc(C)cc1Nc1nccc(-c2cc(C#N)c3c(c2)[C@@](C)(CO)CN3)n1 [Compound 59],IC50,[1],5 nM
same,IC50,[2],68 nM
same,IC50,[3],1950 nM
Cc1cc(Nc2nccc(-c3cc(C#N)c4c(c3)[C@@](C)(CO)CN4)n2)n(CC2CCOCC2)n1 [Compound 61],IC50,[1],4.4 nM
same,IC50,[2],162 nM
same,IC50,[3],355 nM
Cc1cc(Nc2nccc(-c3cc(C#N)c4c(c3)[C@@](C)(CO)CN4)n2)n(C2CCN(C)CC2)n1 [Compound 62],IC50,[1],23 nM
same,IC50,[2],204 nM
same,IC50,[3],269 nM
Cc1cc(Nc2nccc(-c3cc(C#N)c4c(c3)[C@@](C)(CO)CN4)n2)n(C2CCOCC2)n1 [Compound 63],IC50,[1],9.8 nM
same,IC50,[2],692 nM
same,IC50,[3],6310 nM
Cn1cc(Nc2nccc(-c3cc(C#N)c4c(c3)[C@@](C)(CO)CN4)n2)c(C(F)(F)F)n1 [Compound 64],IC50,[1],1.9 nM
same,IC50,[2],240 nM
same,IC50,[3],3240 nM
CC(C)(c1cc(Nc2nccc(-c3cc(C#N)c4c(c3)[C@@](C)(CO)CN4)n2)[nH]n1)S(C)(=O)=O [Compound 65],IC50,[1],10 nM
same,IC50,[2],~1410 nM
same,IC50,[3],> 10000 nM
